Data from the supplement of paper PMC10307832.

Assays:
Experiment in all cases: relative viability (nuclei count vs DMSO), 5 days (fraction); higher = more cells survive
[1] = compound: COC1=CC=C(C=C1)CN2C=CC3=C2C=C(C=C3)C(=O)NO + CC(=O)c1c(C)c2cnc(Nc3ccc(N4CCNCC4)cn3)nc2n(C2CCCC2)c1=O [Palbociclib] (partner 0.5 µM)
Outline: (§1)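 Values are medians from duplicate plates. Each reflects relative viability, defined as the nuclei count of treated wells over that of vehicle wells. Lung cancer cell lines in 1536-well plates were pin-tool dosed one day after seeding with one drug alone or with a fixed anchor-drug dose plus five library-drug doses (not always all listed) in √10 steps, then fixed, stained and imaged at 4× after 5 days.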

[2] = compound: COC1=CC=C(C=C1)CN2C=CC3=C2C=C(C=C3)C(=O)NO + CC1(C)CCC(c2ccc(Cl)cc2)=C(CN2CCN(c3ccc(C(=O)NS(=O)(=O)c4ccc(N[C@H](CCN5CCOCC5)CSc5ccccc5)c(S(=O)(=O)C(F)(F)F)c4)cc3)CC2)C1 [Navitoclax] (partner 0.5 µM)
Outline: as §1

[3] = compound: C[C@]1(c2nc3c(C(N)=O)cccc3[nH]2)CCCN1 [Veliparib] + C[C@@H](Oc1cc(-c2cnn(C3CCNCC3)c2)cnc1N)c1c(Cl)ccc(F)c1Cl [Crizotinib] (partner 1 µM)
Outline: as §1

[4] = compound: C[C@]1(c2nc3c(C(N)=O)cccc3[nH]2)CCCN1 [Veliparib] + C[C@]1(O)C[C@@H](c2nc(-c3ccc4ccc(-c5ccccc5)nc4c3)c3c(N)nccn32)C1 [Linsitinib] (partner 1 µM)
Outline: as §1

Row | Cell Line | relative viability ([1]; first compound 0.08 µM) | relative viability ([1]; first compound 0.253 µM) | relative viability ([1]; first compound 0.8 µM) | relative viability ([1]; first compound 2.53 µM) | relative viability ([1]; first compound 8 µM) | relative viability ([2]; first compound 0.08 µM) | relative viability ([2]; first compound 0.253 µM) | relative viability ([2]; first compound 0.8 µM) | relative viability ([2]; first compound 2.53 µM) | relative viability ([2]; first compound 8 µM) | relative viability ([3]; first compound 0.02 µM) | relative viability ([3]; first compound 0.06325 µM) | relative viability ([3]; first compound 0.2 µM) | relative viability ([3]; first compound 0.6325 µM) | relative viability ([3]; first compound 2 µM) | relative viability ([4]; first compound 0.02 µM) | relative viability ([4]; first compound 0.06325 µM) | relative viability ([4]; first compound 0.2 µM) | relative viability ([4]; first compound 0.6325 µM) | relative viability ([4]; first compound 2 µM)
1 | NCI-H2126 | 0.34 | 0.339 | 0.368 | 0.361 | 0.376 | 0.824 | 0.931 | 0.849 | 0.848 | 0.886 | 0.966 | 1.02 | 0.988 | 0.988 | 0.933 | 0.715 | 0.668 | 0.701 | 0.661 | 0.733
2 | NCI-H2228 | 0.544 | 0.825 | 0.904 | 0.685 | 0.573 | 0.955 | 1.19 | 1.04 | 1.1 | 0.411 | 0.436 | 0.405 | 0.457 | 0.447 | 0.475 | 0.552 | 0.601 | 0.681 | 0.572 | 0.726
3 | NCI-H2347 | 0.422 | 0.445 | 0.472 | 0.441 | 0.428 | 0.579 | 0.883 | 0.843 | 0.968 | 0.762 | 0.798 | 0.839 | 0.678 | 0.652 | 0.616 | 0.999 | 0.831 | 0.912 | 0.896 | 0.947
4 | NCI-H2405 | 0.476 |  | 0.55 | 0.513 | 0.481 | 0.534 | 0.82 | 0.764 | 0.775 | 0.66 | 0.845 | 0.788 | 0.802 | 0.815 | 0.909 |  | 0.938 | 1.01 | 0.923 | 0.885
5 | NCI-H3122 | 0.196 | 0.173 | 0.204 | 0.167 | 0.194 | 1.01 | 1 | 1.02 | 1.02 | 1.03 | 0.247 | 0.297 | 0.26 | 0.268 | 0.304 | 1.04 | 1.01 | 0.983 | 1.04 | 1.06
6 | PC-3 [JPC-3] | 0.562 |  | 0.559 | 0.55 | 0.535 | 0.822 | 0.831 | 0.83 | 0.859 | 0.74 | 0.996 | 0.961 | 0.914 | 0.96 | 0.985 | 0.929 | 0.921 | 0.917 | 0.883 | 0.972
7 | PC-14 | 0.533 | 0.599 | 0.567 | 0.509 | 0.535 | 0.869 | 1.04 | 1.01 | 1.14 | 1.02 | 0.896 | 0.898 | 0.781 | 0.766 | 0.766 | 1.02 | 0.915 | 0.953 | 0.86 | 0.926
8 | RERF-LC-KJ | 1.05 | 1.1 | 1.07 | 1.09 | 1.05 | 0.934 | 0.852 | 0.903 | 1.04 | 0.926 | 0.893 | 0.751 | 0.847 | 0.784 | 0.783 | 0.894 | 0.787 | 0.823 | 0.837 | 0.818
9 | SK-LU-1 | 0.385 | 0.374 | 0.422 | 0.434 | 0.341 | 0.849 | 1 | 1 | 0.815 | 0.745 | 1.15 | 0.924 | 1.07 | 0.848 | 0.803 | 1.2 | 1.01 | 1.17 | 1.06 | 1.17
10 | SK-MES-1 | 0.357 | 0.324 | 0.299 | 0.287 | 0.31 | 1.2 | 1.3 | 1.26 | 1.2 | 1.02 | 0.973 | 0.901 | 0.951 | 0.854 | 0.956 | 1.05 | 1.03 | 1.06 | 0.913 | 1.09
11 | UMC-11 |  | 0.361 | 0.29 | 0.331 | 0.343 | 0.197 | 0.341 | 0.316 | 0.317 | 0.339 | 0.549 | 0.654 | 0.595 | 0.547 | 0.577 | 1.06 | 1 | 1.08 | 0.963 | 0.961
